According to patent US5432018A, “Peptide library and screening systems” (Affymax Technologies N.V., priority 1991, dated 1995):

Tested on: 3E7 Fab
Test: Dissociation of [125I]Fab from fusion phage clones
Assay type: binding, mouse
Design: key to Dissociation t1/2 (minutes): **: indicates that initial binding was not detected
Conditions: [125I]Fab dissociating from the phage clone bearing the peptide; 4° C; excess free YGGFL added
Description: An assay employing the anti-phage antisera was developed to determine the rate of dissociation of [^125 I]Fab from individual phage isolates. Individual fusion phase isolates were amplified in a 5 ml liquid culture of E. coli K91 cells and phage particles were isolated and quantitated as described above. In 1 ml microtiter minitubes, 25 μl of TBS containing approximately 2×10^9 infectious phage particles were incubated with […] of TBS/0.1% BSA containing 40,000 cpm of [^125 I]Fab for 10 minutes. Anti-phage antisera (25 μl of 1:1000 dilution in PBS/0.1%BSA) and staph A particles coated with goat anti-mouse IgG (25 μl of Tachisorb diluted eight-fold in TBS/0.1% BSA) were then added. Dissociation was initiated after 2 hours further incubation at 4° C. […] Filter bound radioactivity was determined by gamma counting. […] The time corresponding to a 50% reduction of initially bound [^125 I]Fab was determined by linear regression of a semi-logarithmic plot of amount bound vs. time.

| Substance | Dissociation t1/2 [min] | Dissociation t1/2 (minutes) |
| --- | --- | --- |
| YGAFFQ: hexapeptide isolated with 50 pM Fab | 13.4 | – |
| YGAFGG: hexapeptide isolated with 50 pM Fab | 5.0 | – |
| YGFWSN: hexapeptide isolated with 50 pM Fab | 7.4 | – |
| YGGFLT: hexapeptide isolated with 50 pM Fab | 17.9 | – |
| YGGFSP: hexapeptide isolated with 50 pM Fab | – | ** |
| YGGLRH: hexapeptide isolated with 50 pM Fab | – | ** |
| YGGLSM: hexapeptide isolated with 50 pM Fab | 0.96 | – |
| YGGLVR: hexapeptide isolated with 50 pM Fab | 0.50 | – |
| YGRFFH: hexapeptide isolated with 50 pM Fab | – | ** |
| YGSFMA: hexapeptide isolated with 50 pM Fab | – | ** |
| YGSFSL: hexapeptide isolated with 50 pM Fab | 0.43 | – |
| YGVFSR: hexapeptide isolated with 50 pM Fab | 2.8 | – |
| YGYWSL: hexapeptide isolated with 50 pM Fab | 15.6 | – |
